Measurements reported in US7572439B2, “Enzyme disruption of bacterial biofilms” (priority 2002, dated 2009).

Legend:
[1] = system: biofilms of S. aureus SA113; assay: Kinetic effect on established biofilms: absorbance at 650 nm and safranin staining; assay type: cell-based; conditions: for effect on established biofilms (safranin): 400 μg/ml oxacillin or 800 μg/ml vancomycin, PBS or TSB, 24 hours; for absorbance of biofilms at 650 nM: as much as 400 μg/ml oxacillin or 800 μg/ml vancomycin in PBS; for absorbance of biofilms at 650 nM / effect on S. aureus biofilms (FIG. 8 legend): twenty four hours; for effect on absorbance of biofilms: in TSB, 24 hours (data not shown); for effect on S. aureus biofilms (FIG. 8 legend): PBS or bacterial media
Procedure: Oxacillin and vancomycin have often been used in antibiotic susceptibility studies of S. aureus biofilms. […] Twenty four-hour biofilms in polystyrene 96-well tissue culture plates were treated with serial dilutions of lysostaphin, oxacillin, and vancomycin (FIG. 7).
In order to examine the kinetic effect of lysostaphin, oxacillin and vancomycin on biofilms, the absorbance of established biofilms in a 96-well tissue culture plate was measured over time (0-3 hrs and 24 hrs). Tissue culture wells containing biofilms of S. aureus SA113 were incubated with serial dilutions of lysostaphin ([…]), oxacillin ([…]), or vancomycin ([…]) for 24 hours, and the absorbance at 650 nm was monitored every 20 minutes for the first 3 hours and then again at 24 hours. The absorbance of the lysostaphin-treated biofilms dropped from approximately 0.35 at time zero to 0.125 after 3 hours of treatment and dropped to near base line (0.04) by 24 hrs when treated with a dose of lysostaphin of 6.25 μg/ml in PBS (FIG. 7). […] Since antimicrobials like oxacillin or vancomycin are effective against actively metabolizing bacteria, a similar experiment was conducted but the biofilms were incubated with the three anti-microbials in bacterial media (TSB). Very similar results were also found when the assay was conducted in TSB rather than PBS.
The capacity of the three agents to disrupt S. aureus biofilms in polystyrene wells can be visualized by comparing the staining intensity of treated wells versus control (buffer-treated) wells.

[2] = system: Methicillin Sensitive S. aureus; assay: Treatment of established infection in jugular vein catheterized mice; assay type: in vivo; conditions: Table 4, MSSA, Nafcillin (50) b.i.d. 4 days
Procedure: Jugular vein catheterized mice (Charles River Labs) were used. The mice were challenged through the tail vein with S. aureus (10^3-10^4CFU, a much lower dose than the 5×10^6 CFU or greater typically necessary to establish an infection in mice not catheterized). Treatment began four days post challenge when infection was established. Lysostaphin was administered through the indwelling catheter in a volume of 200 μ PBS (in the case of methicillin resistant S. aureus, nafcillin was added to the treatment). After the final treatment of the day, 50 μl of a lock solution (50% sterile glucose solution) with lysostaphin (and nafcillin, when used), added at the same concentration as used for treatment, was put in the catheters. Control mice received equal treatments with PBS and lock solution alone.
On the day following the last treatment the liver, heart and a portion of the catheter in the heart were harvested. The catheter portions were sonicated to release bacteria.

SMILES | effect on established biofilms (safranin) [1] | absorbance of biofilms at 650 nM [1] | effect on absorbance of biofilms [1] | effect on absorbance of S. aureus biofilms over time (FIG. 7 legend) ([1]; lysostaphin 6.25 μg/ml, vancomycin 800 μg/ml, oxacillin 400 μg/ml) | effect on S. aureus biofilms (FIG. 8 legend) ([1]; oxacillin 1.6-400 μg/ml, vancomycin 3.2-800 μg/ml) | S. aureus recovered, Heart [2] [CFU] | effect on absorbance of S. aureus biofilms over time (FIG. 7 legend) ([1]; lysostaphin 6.25 cg/ml, vancomycin 800 cg/ml, oxacillin 400 cg/ml) | effect on S. aureus biofilms (FIG. 8 legend) ([1]; oxacillin 1.6-400 cg/ml, vancomycin 3.2-800 cg/ml)
CN[C@H](CC(C)C)C(=O)N[C@H]1C(=O)N[C@@H](CC(N)=O)C(=O)N[C@H]2C(=O)N[C@H]3C(=O)N[C@H](C(=O)N[C@H](C(=O)O)c4cc(O)cc(O)c4-c4cc3ccc4O)[C@H](O)c3ccc(c(Cl)c3)Oc3cc2cc(c3O[C@@H]2O[C@H](CO)[C@@H](O)[C@H](O)[C@H]2O[C@H]2C[C@](C)(N)[C@H](O)[C@H](C)O2)Oc2ccc(cc2Cl)[C@H]1O [vancomycin] | no obvious effect | around 0.325 | little or no effect | no effect | no effect |  |  | 
CCOc1ccc2ccccc2c1C(=O)N[C@@H]1C(=O)N2[C@@H]1SC(C)(C)[C@@H]2C(=O)O [Nafcillin, nafcillin, reference compound] |  |  |  |  |  | 0 |  | 
Cc1onc(-c2ccccc2)c1C(=O)N[C@@H]1C(=O)N2[C@@H]1SC(C)(C)[C@@H]2C(=O)O [oxacillin] | no obvious effect | around 0.325 | little or no effect |  |  |  | no effect | no effect
